According to the supplement of paper PMC11451515:

Key:
Conditions in all cases: 48 h
SEM cells [1] = test: AUC of viability dose-response curve (% viability x log10 dose units); higher = less sensitive
Procedure, shortened: (§1)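 Leukemia cells adapted to each medium were seeded in 1536-well plates (500 or 1000 cells/well) and given library compounds in DMSO for 48 h at 37°C. The 11 threefold doses spanned 47 μM to 0.79 nM, and CellTiter-Glo One luminescence was normalised per plate to DMSO and cell-free wells before four-parameter log-logistic fitting on log10 dose. Area under the curve was integrated with the trapezoidal rule, scaling curves above full viability and removing curves that failed quality control.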

NOMO1 [2] = test: as above
Procedure, shortened: as §1

SEM cells [3] = test: cell viability relative to DMSO control; higher = less cytotoxic
Procedure, shortened: (§2)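 Cells were incubated for 48 h at 37°C before CellTiter-Glo One luminescence was read. The cells were NOMO1 or SEM (500 cells/well) or P12-Ichikawa (1000 cells/well) leukemia cells, adapted for at least four passages in each medium and seeded in 1536-well plates (5 μl). Dosing used library compounds in DMSO applied by pin over 11 threefold points, 47 μM to 0.79 nM. Viability is the per-plate percentage of DMSO wells, with cell-free wells as background.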

P12-Ichikawa = test: as above
Procedure, shortened: as §2

NOMO1 [4] = test: as above
Procedure, shortened: as §2

CNC(=O)c1ccc2c(c1)NC(=O)/C2=C(\Nc1cccc(CN(C)C)c1)c1ccccc1
AUC of viability dose-response curve
Conditions	HPLM + 10% dialyzed FBS	RPMI 5 mM glucose + 10% FBS	RPMI 5 mM glucose + 10% dialyzed FBS
NOMO1 [2]	400	399	380
SEM cells [1]	318	303	302

cell viability [%]
Conditions	NOMO1 [4]	P12-Ichikawa	SEM cells [3]
HPLM + 10% dialyzed FBS, 0.000781 µM	85.5	92.9	74.4
HPLM + 10% dialyzed FBS, 0.00234 µM	109	97.2	93.6
HPLM + 10% dialyzed FBS, 0.00702 µM	103	98.5	98.8
HPLM + 10% dialyzed FBS, 0.0211 µM	100	99.8	109
HPLM + 10% dialyzed FBS, 0.0632 µM	99.9	100	85.3
HPLM + 10% dialyzed FBS, 0.19 µM	106	101	89.9
HPLM + 10% dialyzed FBS, 0.569 µM	95	98.9	78.1
HPLM + 10% dialyzed FBS, 1.71 µM	91.9	89.1	57.7
HPLM + 10% dialyzed FBS, 5.12 µM	45.9	35.8	4.44
HPLM + 10% dialyzed FBS, 15.4 µM	63.4	87.6	23.4
HPLM + 10% dialyzed FBS, 46.1 µM	0.559	0.763	1.26
RPMI 5 mM glucose + 10% FBS, 0.000781 µM	93.7	87.3	97
RPMI 5 mM glucose + 10% FBS, 0.00234 µM	84.5	98.2	94.9
RPMI 5 mM glucose + 10% FBS, 0.00702 µM	93.6	97.3	97.3
RPMI 5 mM glucose + 10% FBS, 0.0211 µM	94.9	105	106
RPMI 5 mM glucose + 10% FBS, 0.0632 µM	93.1	102	93.5
RPMI 5 mM glucose + 10% FBS, 0.19 µM	93.3	101	89.7
RPMI 5 mM glucose + 10% FBS, 0.569 µM	95.1	103	94.5
RPMI 5 mM glucose + 10% FBS, 1.71 µM	87.2	92.5	4.33
RPMI 5 mM glucose + 10% FBS, 5.12 µM	80	36.5	3.4
RPMI 5 mM glucose + 10% FBS, 15.4 µM	66.5	83.5	1.5
RPMI 5 mM glucose + 10% FBS, 46.1 µM	1.26	1.21	1.29
RPMI 5 mM glucose + 10% dialyzed FBS, 0.000781 µM	74.6	86.4	78.4
RPMI 5 mM glucose + 10% dialyzed FBS, 0.00234 µM	91.7	95.6	92.3
RPMI 5 mM glucose + 10% dialyzed FBS, 0.00702 µM	90.5	108	97.5
RPMI 5 mM glucose + 10% dialyzed FBS, 0.0211 µM	90.7	101	92.1
RPMI 5 mM glucose + 10% dialyzed FBS, 0.0632 µM	80	102	87.2
RPMI 5 mM glucose + 10% dialyzed FBS, 0.19 µM	98.9	101	108
RPMI 5 mM glucose + 10% dialyzed FBS, 0.569 µM	90.3	103	81.4
RPMI 5 mM glucose + 10% dialyzed FBS, 1.71 µM	89.1	97.5	35.4
RPMI 5 mM glucose + 10% dialyzed FBS, 5.12 µM	75.9	35.6	3.62
RPMI 5 mM glucose + 10% dialyzed FBS, 15.4 µM	57.7	81.8	1.76
RPMI 5 mM glucose + 10% dialyzed FBS, 46.1 µM	1.81	1.03	1.28
